Results from PMC7108740, “Exploring the molecular structures that confer ligand selectivity for galanin type II and III receptors” (PLoS ONE, 2020).

Key:
Assay type in all cases: cell-based
[1] = target: T1, GALR3 single mutant A^191F (Homo sapiens, UniProt O60755, A191F); assay: SRE-luc luciferase assay, GALR3 A191F; settings: GALR3 A^191F; SRE-luc in HEK293 Gqi cells, ligand 6 h; mean ± S.E.; SEM
T1 construct: expressed in transfected cells; host or cells: HEK293 cells stably expressing Gqi
Text: (§1) For domain swapping between GALR2 and GALR3, individual cDNA fragments of interest were amplified by polymerase chain reaction (PCR) with Pfu polymerase (ELPIS Biotech, Daejeon, Korea) and two specific primers, one corresponding to the 5' or 3' end of the GALR2 or GALR3 cDNA and the other to the region of overlap between the two receptors. The two resulting fragments, one from GALR2 and the other from GALR3, were subjected to a second round of PCR to generate the chimeric cDNAs. To construct single, double-, triple-, pentuple-, hextuple-, and septuple-mutant receptors, amino acids of GALR3 were substituted for the amino acids at the corresponding positions in GALR2 using PCR-based site-directed mutagenesis. All of the chimeric constructs were cloned into the pcDNA3 expression vector at HindⅢ and XbaⅠ sites. The DNA sequences of the chimeras were verified by automatic sequencing. […] The luciferase activity in 50 μl cell extract was determined using a luciferase assay system according to the standard protocol for the Synergy 2 Multi-Mode Microplate Reader (BioTek, Winooski, VT, USA). […] The concentrations of agonists that induced half-maximal stimulation (EC50) were calculated using the GraphPad PRISM5 software (GraphPad software, Inc., San Diego, CA). […]

[2] = target: T2, GALR3 single mutant F^265P (Homo sapiens, UniProt O60755); assay: SRE-luc luciferase assay, GALR3 F265P; settings: GALR3 F^265P; SRE-luc in HEK293 Gqi cells, ligand 6 h; mean ± S.E.
T2 construct: expressed in transfected cells; host or cells: HEK293 cells stably expressing Gqi
T2 sequence (O60755 whole entry F265L): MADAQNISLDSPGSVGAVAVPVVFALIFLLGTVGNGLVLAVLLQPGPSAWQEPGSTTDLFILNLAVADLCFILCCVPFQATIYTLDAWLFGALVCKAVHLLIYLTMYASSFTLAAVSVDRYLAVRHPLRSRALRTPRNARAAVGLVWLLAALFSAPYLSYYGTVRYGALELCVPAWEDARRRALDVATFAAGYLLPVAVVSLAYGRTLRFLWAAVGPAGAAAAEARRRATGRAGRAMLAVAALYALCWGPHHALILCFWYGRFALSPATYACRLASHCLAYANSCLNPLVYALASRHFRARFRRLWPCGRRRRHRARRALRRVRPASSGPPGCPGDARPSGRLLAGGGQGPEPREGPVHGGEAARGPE
Text: as §1

[3] = target: T3, GALR3 single mutant P^267R (Homo sapiens, UniProt O60755, P267R); assay: SRE-luc luciferase assay, GALR3 P267R; settings: GALR3 P^267R; SRE-luc in HEK293 Gqi cells, ligand 6 h; mean ± S.E.; SEM
T3 construct: expressed in transfected cells; host or cells: HEK293 cells stably expressing Gqi
T3 sequence (O60755 whole entry P267R): as the sequence (O60755 whole entry F265L) above, with L265F, P267R counted along it
Text: as §1

[4] = target: T4, GALR3 single mutant C^272L (Homo sapiens, UniProt O60755, C272L); assay: SRE-luc luciferase assay, GALR3 C272L; settings: GALR3 C^272L; SRE-luc in HEK293 Gqi cells, ligand 6 h; mean ± S.E.; SEM
T4 construct: expressed in transfected cells; host or cells: HEK293 cells stably expressing Gqi
T4 sequence (O60755 whole entry C272L): as the sequence (O60755 whole entry F265L) above, with L265F, C272L counted along it
Text: as §1

T1 sequence (O60755 whole entry A191F): as the sequence (O60755 whole entry F265L) above, with A191F, L265F counted along it

CSCC[C@H](NC(=O)[C@H](C)NC(=O)[C@H](CCC(N)=O)NC(=O)[C@@H]1CCCN1C(=O)[C@@H](NC(=O)[C@H](Cc1c[nH]c2ccccc12)NC(=O)[C@@H](N)CC(N)=O)[C@@H](C)O)C(=O)N[C@@H](CC(C)C)C(=O)N[C@@H](Cc1ccc(O)cc1)C(=O)N[C@@H](CC(C)C)C(=O)N[C@@H](CCCCN)C(=O)NCC(=O)N[C@@H](C)C(=O)N[C@@H](CCC(N)=O)C(N)=O [SPX, reference compound]
EC50 [1]: 91.2 ± 31 nM
EC50 [2]: > 1000 nM
EC50 [3]: 115 ± 48.7 nM
EC50 [4]: 28.8 ± 6.96 nM
